Measurements taken from patent US20130209431A1, “ISOLATION AND CULTURE OF ERYTHROID PROGENITOR CELLS” (NEW YORK BLOOD CENTER, INC., priority 2012, published 2013).

How the values were obtained:
[1] = test system: CD34+CD36−IL-3R+ cells (BFU-E cells); assay: Liquid culture of sorted BFU-E cells, cell numbers counted every day; assay type: cell-based, human
Description: (§1) Cells from day 5 cultures were used for sorting since at this time the cultured cells contain about equal numbers of BFU-E and CFU-E forming progenitors. 50×10^6 cells were suspended in 4 mL PBS/0.5% BSA in a 50 mL tube. Cells were blocked with 4% human AB serum for 10 min and subsequently incubated with PE-conjugated mouse anti-human CD34, FITC-conjugated mouse anti-human CD36 and PE-Cy7-conjugated mouse anti-human IL3-R on ice for 30 min in the dark. Cells were washed twice with 40 mL PBS/0.5% BSA and re-suspended in 5 mL PBS/0.5% BSA and stained with the viability marker 7-AAD on ice for 10 min in the dark. Sorting was performed on a MOFLO high-speed cell sorter (Beckman-Coulter). To sort BFU-E and CFU-E cells from primary human bone marrow, we first obtained mononuclear cells by Ficoll density gradient separation. We then obtained CD45^+ cells by positive selection using CD45 magnetic beads. The CD45^+ cells were stained with PE-conjugated mouse anti-human CD34, FITC-conjugated mouse anti-human CD36, PE-Cy7-conjugated mouse anti-human IL3-R, APC-cy7-conjugated mouse anti-human CD45 and APC-conjugated mouse anti-human CD71 for 30 min in the dark. Cells were washed twice with 40 mL PBS/0.5% BSA, re-suspended in 5 mL PBS/0.5% BSA and stained with the viability marker 7-AAD on ice for 10 min in the dark. Sorting was performed on a MOFLO high-speed cell sorter (Beckman-Coulter).
(§2) 0.1×10^6 of sorted BFU-E and the CFU-E cells were cultured in 1 ml of the first phase culture media (as described before) in the absence or presence of dexamethasone (1 μM) or lenalidomide (10 nM). The cell numbers were counted every day.

[2] = test system: CD34−CD36+IL-3R− cells (CFU-E cells); assay: Liquid culture of sorted CFU-E cells, cell numbers counted every day; assay type: cell-based, human
Description: as §1, with “Cells were washed twice with 40 mL PBS/0.5% BSA, re-suspended in 5 mL PBS/0.5% BSA and stained with the viability marker 7-AAD on ice for 10 min in the dark. Sorting was performed on a MOFLO high-speed cell sorter (Beckman-Coulter).” left out
as §2

[3] = test system: CFU-E cells; assay: Flow cytometry of GPA surface expression on cultured CFU-E cells (self-renewal); assay type: cell-based, human; conditions: cultured for 6 days in the presence of lenalidomide
Description: Cells taken from culture every day (day 1 to day 7) were analyzed for cell surface expression of CD34, IL-3R, CD36, CD71, CD45 and GPA using FACS canto flow cytometer (Becton Dickinson). Cultured cells (1×10^5) were suspended in PBS supplemented with 0.5% BSA and incubated with 4% human AB serum for 10 min on ice in the dark. The cells were subsequently incubated with fluorochrome-conjugated antibodies for 30 min at 4° C. and then washed once with PBS-0.5% BSA. The washed cells were then incubated for 10 min on ice in the dark with 7-AAD for identification of dead cells. All the reactions were performed under conditions of antibody saturation. Electronic compensation was done using unstained samples.
as §2
Next, the effect of lenalidomide on CFU-E cells was examined. In this population, the expression of GPA was determined since GPA becomes positive as CFU-E cells differentiate into proerythroblasts. […] These findings imply that lenalidomide promotes self-renewal of the CFU-E cells.

[4] = test system: human CD34+ cells; conditions: cited from earlier work

## C[C@@H]1C[C@H]2[C@@H]3CCC4=CC(=O)C=C[C@]4(C)[C@@]3(F)[C@@H](O)C[C@]2(C)[C@@]1(O)C(=O)CO [dexamethasone]
[1]; dexamethasone 1 μM
  expansion of CD34+CD36−IL-3R+ cells in the presence versus absence of dexamethasone: ~20 fold
[1]; dexamethasone 1 μM, from 0.1×10^6 cells, untreated 70-fold
  expansion of CD34+CD36−IL-3R+ cells: 1300 fold
[1]; dexamethasone 1 μM, start 0.1×10^6, untreated 7×10^6
  cell number reached by CD34+CD36−IL-3R+ cells: 130×10^6
[1]; dexamethasone 1 μM, untreated 6 days
  duration of continued proliferation of CD34+CD36−IL-3R+ cells: 9 days
[1]; in the presence of dexamethasone
  reduction of BFU-E cell doubling time: 33%

## Nc1cccc2c1CN(C1CCC(=O)NC1=O)C2=O (centres unmarked) [lenalidomide]
[1]; lenalidomide 10 nM
  effect on the proliferation of CD34+CD36−IL-3R+ cells: no effect
[2]; dexamethasone 1 μM or lenalidomide 10 nM
  response of CD34−CD36+IL-3R− cell proliferation to treatment: enhanced the proliferation and expansion
[2]; lenalidomide 10 nM, doubled every 24 hours in the absence
  increase of CD34−CD36+IL-3R− cell numbers every day: tripled
[3]
  surface expression of GPA on CFU-E cells: remains negative
[4]
  effect on BFU-E colony formation: not BFU-E colony
  effect on CFU-E colony formation: promotes CFU-E colony formation
